Laboratory results: patent US20250122155A1, “NOVEL INDOLE DERIVATIVE, PHARMACEUTICAL COMPOSITION COMPRISING SAME, AND USE THEREOF” (MITOIMMUNE THERAPEUTICS INC., priority 2021, published 2025)

System: H9C2 cells
Experiment: Protective effect on heart cells against t-BHP (LDH release)
Format: cell-based
Conditions: H9C2, t-BHP 400 μM, 2 hours, read-out: EC50 (μM), Cell Protection Effect against t-BHP in Heart Cells
Description: In order to identify the protective effect with regard to heart cells, H9C2 cells were divided into 96-well plates by 1.5×10^4, and cultured for 24 hours. The respective wells were treated with compounds of the examples 3× serial diluted to final concentrations of 30, 10, 3, 1, 0.3, 0.1, 0.03 and 0.01 μM, then incubated for 15 to 20 minutes. After treating with t-BHP with a final concentration of 400 μM, incubation was performed for 2 hours. To confirm the protective effect of each compound, a Cytotoxicity LDH assay kit [Dojindo; CK12] was used to measure the degree of extracellular secretion of LDH. After 2-hour treatment of the cells with t-BHP was completed, 100 μL each of the supernatant in which the cells were placed was collected and moved to a new 96-well plate. 100 μL/well of the assay buffer included in the kit (same amount as the sample) was added, followed by wrapping with foil and reacting for 30 minutes at room temperature. Observing the change of color in the sample, 50 μL/well of stop solution was added, then an iD3 spectrometer was used to measure absorbance at 490 nm and calculate the EC50 values. The EC50 of the compounds of the examples is preferably no more than 1.0 μM, and more preferably no more than 0.3 μM.

| Structure (SMILES) | EC50 |
| --- | --- |
| COCCOCc1cc(NC2CCN(C(=O)Nc3cc(Cl)cc(Cl)c3)CC2)c2[nH]c(-c3ccccc3)cc2c1 [Example 42, N-(3,5-dichlorophenyl)-4-[[5-(2-methoxyethoxymethyl)-2-phenyl-1H-indol-7-yl]amino]piperidine-1-carboxamide] | 0.3 to 1 µM |
| COCCOCc1cc(NC2CCCC2)c2[nH]c(-c3ccc(C#CC(C)(C)O)cc3)cc2c1 [Example 58, 4-(4-(7-(cyclopentylamino)-5-((2-methoxyethoxy)methyl)-1H-indol-2-yl)phenyl)-2-methylbut-3-yn-2-ol] | 0.3 to 1 µM |
| COCCCOCc1cc(NC2CCOCC2)c2[nH]c(-c3ccccc3)cc2c1 [Example 63, 5-((3-methoxypropoxy)methyl)-2-phenyl-N-(tetrahydro-2H-pyran-4-yl)-1H-indol-7-amine] | 0.3 to 1 µM |
| COCCOCc1cc(NCc2cccs2)c2[nH]c(-c3ccccc3)cc2c1 [Example 43, 5-(2-methoxyethoxymethyl)-2-phenyl-N-(2-thienylmethyl)-1H-indol-7-amine] | 0.3 to 1 µM |
| COCCOCCOCc1cc(NC2CCOCC2)c2[nH]c(-c3ccccc3)cc2c1 [Example 40, 5-[2-(2-methoxyethoxy)ethoxymethyl]-2-phenyl-N-tetrahydropyran-4-yl-1H-indol-7-amine] | 0.3 to 1 µM |
| COCCOCc1cc(NC2CCCC2)c2[nH]cc(C)c2c1 [Example 49, N-cyclopentyl-5-(2-methoxyethoxymethyl)-3-methyl-1H-indol-7-amine] | 0.3 to 1 µM |
| COCCOCc1cc(NC2CCC2)c2c(c1)cc(-c1ccccc1)n2C [Example 10, N-cyclobutyl-5-(2-methoxyethoxymethyl)-1-methyl-2-phenyl-indol-7-amine] | 0.3 to 1 µM |
| COCCOCc1cc(NC2COC2)c2[nH]c(-c3ccccc3)cc2c1 [Example 7, 5(2-methoxyethoxymethyl)-N-(oxetane-3-yl)-2-phenyl-1H-indol-7-amine] | ≤ 0.3 µM |
| COCCOCc1cc(NCCC(C)C)c2[nH]c(-c3ccccc3)cc2c1 [Example 19, N-isopentyl-5-(2-methoxyethoxymethyl)-2-phenyl-1H-indol-7-amine] | ≤ 0.3 µM |
| COCCOCCc1cc(NC2CCCC2)c2[nH]c(-c3ccccc3)cc2c1 [Example 66, N-cyclopentyl-5-(2-(2-methoxyethoxy)ethyl)-2-phenyl-1H-indol-7-amine] | ≤ 0.3 µM |
| COCCOCc1cc(NC2CCN(C)CC2)c2[nH]c(-c3ccccc3)cc2c1 [Example 34, 5-(2-methoxyethoxymethyl)-N-(1-methyl-4-piperidyl)-2-phenyl-1H-indol-7-amine] | ≤ 0.3 µM |
| COCCOCc1cc(NC2CCOCC2)c2c(c1)cc(-c1ccccc1)n2C [Example 53, 5-((2-methoxyethoxy)methyl)-1-methyl-2-phenyl-N-(tetrahydro-2H-pyran-4-yl)-1H-indol-7-amine] | 0.3 to 1 µM |
| COCCOCc1cc(NCC2CCCC2)c2[nH]c(-c3ccccc3)cc2c1 [Example 12, N-(cyclopentylmethyl)-5-(2-methoxyethoxymethyl)-2-phenyl-1H-indol-7-amine] | ≤ 0.3 µM |
| COCCOCc1cc(NC2CCN(C(=O)Nc3cc(C(F)(F)F)cc(C(F)(F)F)c3)CC2)c2[nH]c(-c3ccccc3)cc2c1 [Example 41, N-[3,5-bis(trifluoromethyl)phenyl]-4-[[5-(2-methoxyethoxymethyl)-2-phenyl-1H-indol-7-yl]amino]piperidine-1-carboxamide] | > 1 µM |
| COCCOCc1cc(NC2CCC(C)(O)CC2)c2[nH]c(-c3ccccc3)cc2c1 (single isomer, unassigned) [Example 70-1, 4-((5-((2-methoxyethoxy)methyl)-2-phenyl-1H-indol-7-yl)amino)-1-methylcyclohexane-1-ol] | ≤ 0.3 µM |
| CCC(C)Nc1cc(COCCOC)cc2cc(-c3ccccc3)[nH]c12 (stereo not drawn) [Example 20, 5-(2(methoxyethoxymethyl)-2-phenyl)-N-sec-butyl-1H-indol-7-amine] | ≤ 0.3 µM |

Results, then the molecule that gave them:

| EC50 | Structure (SMILES) |
| --- | --- |
| ≤ 0.3 µM | COCCCNc1cc(COCCOC)cc2cc(-c3ccccc3)[nH]c12 [Example 47, 5-(2-methoxyethoxymethyl)-N-(3-methoxypropyl)-2-phenyl-1H-indol-7-amine] |
| ≤ 0.3 µM | COCCOCc1cc(N(C2CCC2)C2CCC2)c2[nH]c(-c3ccccc3)cc2c1 [Example 9, N,N-dicyclobutyl-5-(2-methoxyethoxymethyl)-2-phenyl-1H-indol-7-amine] |
| ≤ 0.3 µM | COCCOCc1cc(NC(C)C(C)C)c2[nH]c(-c3ccccc3)cc2c1 (stereo not drawn) [Example 26, N-(1,2-dimethylpropyl)-5-(2-methoxyethoxymethyl)-2-phenyl-1H-indol-7-amine] |
| ≤ 0.3 µM | COCCCOCc1cc(NC2COC2)c2[nH]c(-c3ccccc3)cc2c1 [Example 62, 5-((3-methoxypropoxy)methyl)-N-(oxetan-3-yl)-2-phenyl-1H-indol-7-amine] |
| ≤ 0.3 µM | COCCOCc1cc(NC2CC[S+]([O-])CC2)c2[nH]c(-c3ccccc3)cc2c1 (stereo not drawn) [Example 33, 5-(2-methoxyethoxymethyl)-N-(1-oxothian-4-yl)-2-phenyl-1H-indol-7-amine] |
| ≤ 0.3 µM | COCCCOCc1cc(NC2CCCC2)c2[nH]c(-c3ccccc3)cc2c1 [Example 61, N-cyclopentyl-5-((3-methoxypropoxy)methyl)-2-phenyl-1H-indol-7-amine] |
| ≤ 0.3 µM | COCCOCc1cc(NCC(C)C)c2[nH]c(-c3ccccc3)cc2c1 [Example 15, N-isobutyl-5-(2-methoxyethoxymethyl)-2-phenyl-1H-indol-7-amine] |
| ≤ 0.3 µM | COCCOCc1cc(NC2CCN(S(C)(=O)=O)CC2)c2[nH]c(-c3ccccc3)cc2c1 [Example 31, 5-(2-methoxyethoxymethyl)-N-(1-methylsulfonyl-4-piperidyl)-2-phenyl-1H-indol-7-amine] |
| ≤ 0.3 µM | COCCOCc1cc(NC2CCN(C(=O)OC(C)(C)C)CC2)c2[nH]c(-c3ccccc3)cc2c1 [Example 29, tert-butyl 4-[[5-(2-methoxyethoxymethyl)-2-phenyl-1H-indol-7-yl]amino]piperidine-1-carboxylate] |
| ≤ 0.3 µM | COCCOCc1cc(NC2CCC2)c2[nH]c(-c3ccccc3)cc2c1 [Example 8, N-cyclobutyl-5-(2-methoxyethoxymethyl)-2-phenyl-1H-indol-7-amine] |
| ≤ 0.3 µM | COCCOCc1cc(NC(C)C(F)(F)F)c2[nH]c(-c3ccccc3)cc2c1 (stereo not drawn) [Example 25, 5-(2-methoxyethoxymethyl)-2-phenyl-N-(2,2,2-trifluoro-1-methyl-ethyl)-1H-indol-7-amine] |
| ≤ 0.3 µM | COCCOCc1cc(NC2CCC(O)CC2)c2[nH]c(-c3ccccc3)cc2c1 (single isomer, unassigned) [Example 69-1, 4-((5-((2-methoxyethoxy)methyl)-2-phenyl-1H-indol-7-yl)amino)cyclohexan-1-ol] |
| ≤ 0.3 µM | COCCOCc1cc(NC(C)C)c2[nH]c(-c3ccccc3)cc2c1 [Example 27, N-isopropyl-5-(2-methoxyethoxymethyl)-2-phenyl-1H-indol-7-amine] |
| ≤ 0.3 µM | COCCOCc1cc(NC2CCC(C)(O)CC2)c2[nH]c(-c3ccccc3)cc2c1 (single isomer, unassigned) [Example 70-2, 4-((5-((2-methoxyethoxy)methyl)-2-phenyl-1H-indol-7-yl)amino)-1-methylcyclohexane-1-ol] |
| ≤ 0.3 µM | COCCOCc1cc(NC2CCOCC2)c2[nH]c(-c3ccc(C)cc3)cc2c1 [Example 60, 5-((2-methoxyethoxy)methyl)-N-(tetrahydro-2H-pyran-4-yl)-2-(p-tolyl)-1H-indol-7-amine] |
| ≤ 0.3 µM | COCCOCc1cc(NC2CCS(=O)(=O)CC2)c2[nH]c(-c3ccccc3)cc2c1 [Example 32, N-(1,1-dioxothian-4-yl)-5-(2-methoxyethoxymethyl)-2-phenyl-1H-indol-7-amine] |
| ≤ 0.3 µM | COCCOCc1cc(/N=C(/C)C(F)(F)F)c2[nH]c(-c3ccccc3)cc2c1 [Example 24, (E,Z)-1,1,1-trifluoro-N-[5-(2-methoxyethoxymethyl)-2-phenyl-1H-indol-7-yl]propane-2-imine] |
| ≤ 0.3 µM | COCCOCc1cc(NCc2ccccc2)c2[nH]c(-c3ccccc3)cc2c1 [Example 28, N-benzyl-5-(2-methoxyethoxymethyl)-2-phenyl-1H-indol-7-amine] |
| ≤ 0.3 µM | COCCOCc1cc(NC2CCC(O)CC2)c2[nH]c(-c3ccccc3)cc2c1 (single isomer, unassigned) [Example 69-2, 4-((5-((2-methoxyethoxy)methyl)-2-phenyl-1H-indol-7-yl)amino)cyclohexan-1-ol] |
| ≤ 0.3 µM | CCC(CC)Nc1cc(COCCOC)cc2cc(-c3ccccc3)[nH]c12 [Example 23, N-(1-ethylpropyl)-5-(2-methoxyethoxymethyl)-2-phenyl-1H-indol-7-amine] |
| ≤ 0.3 µM | CC(C)OCCOCc1cc(NC2CCOCC2)c2[nH]c(-c3ccccc3)cc2c1 [Example 38, 5-(2-isopropoxyethoxymethyl)-2-phenyl-Ntetrahydropyran-4-yl-1H-indol-7-amine] |
| ≤ 0.3 µM | CC(C)OCCOCc1cc(NC2CCCC2)c2[nH]c(-c3ccccc3)cc2c1 [Example 37, N-cyclopentyl-5-(2-isopropoxyethoxymethyl)-2-phenyl-1H-indol-7-amine] |
| ≤ 0.3 µM | CCCCNc1cc(COCCOC)cc2cc(-c3ccccc3)[nH]c12 [Example 17, N-butyl-5-(2-methoxyethoxymethyl)-2-phenyl-1H-indol-7-amine] |
